Test results: patent publication US10350255B2, “Polygonum cuspidatum extracts” (priority 2015, dated 2019)
Read-outs that look alike come from different tables or passages of the source.

Columns and labels:
microorganisms = assay: Photodynamic inactivation by isolated fractions and commercial anthraquinones; format: cell-based; conditions: for Order of photodynamic inactivation of microorganisms: commercial samples of anthraquinones; for Photodynamic effect of components isolated by fractionation: isolated by fractionation of the extract
Text: The anthraquinones, or their glycosylated derivatives, could be responsible for the photosensitizing effect of the extract. […] Commercial samples of anthraquinones produced photodynamic inactivation of microorganisms in the order emodin>physcion>rhein. In some P. cuspidatum extracts, the proportions of emodin and physcion are between 0.51-0.65% and 0.24-0.27% by weight, respectively.

S. aureus = assay: Agar diffusion test (TSA, bored hole / paper disk), dark vs light; format: cell-based, Staphylococcus aureus; conditions: for zone of inhibition at 5000 µg/mL: Staphylococcus aureus, chlorhexidine control 5 mg/mL
S. mutans = assay: as above; format: cell-based, Streptococcus mutans; conditions: for zone of inhibition at 5000 µg/mL: chlorhexidine control 5 mg/mL
[1] = light-activated, extract 40 μg, components at their proportions found in the extract, listed as Emodin 0.001%
[2] = light-activated, extract 40 μg, components at their proportions found in the extract
[3] = comparative test, samples at strength as labelled, dark
[4] = comparative test, samples at strength as labelled, light 36 J cm^-2

`Cc1cc(O)c2c(c1)C(=O)c1cc(O)cc(O)c1C2=O` [Emodin] was tested, and the “Order of photodynamic inactivation of microorganisms” value (microorganisms) was “emodin>physcion>rhein”, the “Photodynamic effect of components isolated by fractionation” value (shortened to “Photodynamic effect … by fractionation”) (microorganisms) was “greatest photodynamic effect” and the “Inhibition zone, S. aureus, Light” value (S. aureus; [1]) was 8.5 mm. The zone of inhibition at 40 µg/disc (S. mutans; Streptococcus mutans, light or radiation study, higher concentrations: 20 μL of 2 mg mL^-1 = 40 μg, light 36 J cm^-2 (FIG. 14), read-out: Inhibition zone (photoactivity)) was 10 mm, the “Inhibition zone, S. mutans, Light” value (S. mutans; [2]) was 7 mm and the “Inhibition zone, S. mutans, Light” value (S. mutans; [1]) was 7.0 mm.

In the case of `COc1cc(O)c2c(c1)C(=O)c1cc(C)cc(O)c1C2=O` [Physcion], the “Order of photodynamic inactivation of microorganisms” value (microorganisms) is reported as “emodin>physcion>rhein”, the “Inhibition zone, S. aureus, Light” value (S. aureus; light-activated, extract 40 μg, components at their proportions found in the extract, listed as Physcion 0.001%) is reported as 8.5 mm and the “Inhibition zone, S. mutans, Light” value (S. mutans; [2]) is reported as “inactive”.

In the case of `Cc1cc2nc3ccc(N(C)C)cc3[s+]c2cc1N.[Cl-]` [TB 1%, Toluidine Blue 0], the “Inhibition zone, S. aureus, Dark” value (S. aureus; [3]) is reported as 15 mm, the “Inhibition zone, S. aureus, Light” value (S. aureus; [4]) is reported as 16 mm and the “Inhibition zone, S. mutans, Dark” value (S. mutans; [3]) is reported as 15 mm. For the same molecule, the “Inhibition zone, S. mutans, Light” value (S. mutans; [4]) was 15 mm.

`COc1cc(O[C@@H]2O[C@H](CO)[C@@H](O)[C@H](O)[C@H]2O)c2c(c1)C(=O)c1cc(C)cc(O)c1C2=O` [anthraquinones A] was tested, and the “Photodynamic effect … by fractionation” value (microorganisms) was “inactive”.

In the case of `Cc1cc(O)c2c(c1)C(=O)c1cc(O)cc(O[C@@H]3O[C@H](CO)[C@@H](O)[C@H](O)[C@H]3O)c1C2=O` [anthraquinones B, Anthraglycoside B], the “Photodynamic effect … by fractionation” value (microorganisms) is reported as “inactive”.

`[H]/N=C(\N/C(=N/[H])NCCCCCCNC(=N)NC(=N)Nc1ccc(Cl)cc1)Nc1ccc(Cl)cc1` [chlorhexidine, Chlorhexidine Digluconate] was tested, and the zone of inhibition at 5000 µg/mL (S. aureus; dark, read-out: Inhibition zone, S. aureus, dark (reference)) was 18 mm, the zone of inhibition at 5000 µg/mL (S. aureus; light 35 J cm^-2, read-out: Inhibition zone, S. aureus, light (reference)) was 18 mm and the zone of inhibition at 5000 µg/mL (S. mutans; Streptococcus mutans, dark, read-out: Inhibition zone, S. mutans, dark (reference)) was 18 mm. For the same molecule, the zone of inhibition at 5000 µg/mL (S. mutans; Streptococcus mutans, light 35 J cm^-2, read-out: Inhibition zone, S. mutans, light (reference)) was 18 mm.

With `Oc1ccc(C=Cc2cc(O)cc(O)c2)cc1` [resveratrol, Resveratrol] the “Antimicrobial activity in the dark” value (S. mutans; agar diffusion, dark (FIG. 14)) was “inactive” and the “Antimicrobial activity with light activation” value (S. mutans; agar diffusion, light 36 J cm^-2 (FIG. 14)) was “inactive”.
